What was measured:
Type in all cases: physicochemical
[1] = Test Example 4: stability of lyophilized compositions of 200 mg of lactose and Compound (II) in vial
Method: 10 mg of Compound (II) and, as a stabilizer, 100 mg of lactose or 9 mg of sodium chloride were dissolved completely in 1 ml of water. The resulting solutions were lyophilized and maintained at 70° C. in glass vials. Nine days after, the resulting compositions were tested on their appearance, the residual amount of Compound (II), and others. As a control, used was a solution of Compound (II) without any stabilizers.
Stability of Lyophilized Compositions of 200 mg of Lactose and Compound (II) in Vial
Tests were carried out in the same manner as in Test Example 1 except that 12.5 mg, 25 mg, 50 mg, 75 mg or 100 mg of Compound (II) were used with 200 mg of lactose. […] Regarding all the compositions, their appearance is a white mass, the time for reconstitutional dissolution was 15 seconds, and the color and the clarity of reconstituted solutions of the compositions were colorless and transparent.

[2] = Test Example 6: dependence of stability on the pH of the solution before lyophilizing; conditions: for Residual amount / Water content / pH of reconstituted solution in 5 ml of purified water: 10 mg Compound (II) + 100 mg lactose
Method: Dependence of the Stability of Lyophilized Compositions of Compound (II) upon the pH Value of the Solution of the Composition before Lyophilizing
10 mg of Compound (II) and, as a stabilizer, 100 mg of lactose were dissolved completely in 1 ml of citrate-NaOH buffer having different pH value between pH 4.0 to 7.0. The resulting solutions having different pH values were lyophilized and maintained at 70° C. in glass vials. Nine days after, the resulting compositions were tested on their pH and the residual amount of Compound (II).

[3] = Test Example 3: dependence of stability on the amount of lactose added; conditions: after 3 months at 40° C. and 75% humidity
[4] = Test Example 4: stability of lyophilized compositions of 200 mg of lactose and Compound (II) in vial; remark: listed apart in the source
[5] = 12.5 mg Compound (II) + 200 mg lactose, 0 hours
[6] = 12.5 mg Compound (II) + 200 mg lactose, after 3 months at 40° C. and 75% humidity
[7] = 12.5 mg Compound (II) + 200 mg lactose, after 9 days at 70° C.
[8] = 12.5 mg Compound (II) + 200 mg lactose, after 21 days at 60° C.
[9] = 25 mg Compound (II) + 200 mg lactose, 0 hours
[10] = 25 mg Compound (II) + 200 mg lactose, after 3 months at 40° C. and 75% humidity
[11] = 25 mg Compound (II) + 200 mg lactose, after 9 days at 70° C.
[12] = 25 mg Compound (II) + 200 mg lactose, after 21 days at 60° C.
[13] = 50 mg Compound (II) + 200 mg lactose, 0 hours
[14] = 50 mg Compound (II) + 200 mg lactose, after 3 months at 40° C. and 75% humidity
[15] = 50 mg Compound (II) + 200 mg lactose, after 9 days at 70° C.
[16] = 50 mg Compound (II) + 200 mg lactose, after 21 days at 60° C.
[17] = 75 mg Compound (II) + 200 mg lactose, 0 hours
[18] = 75 mg Compound (II) + 200 mg lactose, after 3 months at 40° C. and 75% humidity
[19] = 75 mg Compound (II) + 200 mg lactose, after 9 days at 70° C.
[20] = 75 mg Compound (II) + 200 mg lactose, after 21 days at 60° C.
[21] = 100 mg Compound (II) + 200 mg lactose, 0 hours
[22] = 100 mg Compound (II) + 200 mg lactose, after 3 months at 40° C. and 75% humidity
[23] = 100 mg Compound (II) + 200 mg lactose, after 9 days at 70° C.
[24] = 100 mg Compound (II) + 200 mg lactose, after 21 days at 60° C.
[25] = all compositions: 12.5 to 100 mg Compound (II) + 200 mg lactose
[26] = solution pH 4.0 before lyophilizing, 0 hours
[27] = solution pH 4.0 before lyophilizing, 9 days at 70° C.
[28] = solution pH 4.5 before lyophilizing, 0 hours
[29] = solution pH 4.5 before lyophilizing, 9 days at 70° C.
[30] = solution pH 5.0 before lyophilizing, 0 hours
[31] = solution pH 5.0 before lyophilizing, 9 days at 70° C.
[32] = solution pH 5.5 before lyophilizing, 0 hours
[33] = solution pH 5.5 before lyophilizing, 9 days at 70° C.
[34] = solution pH 6.0 before lyophilizing, 0 hours
[35] = solution pH 6.0 before lyophilizing, 9 days at 70° C.
[36] = solution pH 6.5 before lyophilizing, 0 hours
[37] = solution pH 6.5 before lyophilizing, 9 days at 70° C.
[38] = solution pH 7.0 before lyophilizing, 0 hours
[39] = solution pH 7.0 before lyophilizing, 9 days at 70° C.

**Q.** Which results are given for `CCCCCOc1ccc(-c2cc(-c3ccc(C(=O)NC4CC(O)C(O)NC(=O)C5C(O)C(C)CN5C(=O)C(C(O)CC(N)=O)NC(=O)C(C(O)C(O)c5ccc(O)c(OS(=O)(=O)[O-])c5)NC(=O)C5CC(O)CN5C(=O)C(C(C)O)NC4=O)cc3)no2)cc1.[Na+]` (stereo not drawn) [Compound (II)]?
**A.** Residual amount [1, 5]: 100.0%; Total impurities [1, 5]: 2.24%; Water content [1, 5]: 1.3%; pH of reconstituted solution in 5 ml of purified water [1, 5]: 6.63; Residual amount [1, 6]: 99.6%; Total impurities [1, 6]: 2.71%; pH of reconstituted solution in 5 ml of purified water [1, 6]: 6.08; Residual amount [1, 7]: 98.1%; Total impurities [1, 7]: 3.95%; pH of reconstituted solution in 5 ml of purified water [1, 7]: 6.15; Residual amount [1, 8]: 97.5%; Total impurities [1, 8]: 3.75%; pH of reconstituted solution in 5 ml of purified water [1, 8]: 6.31; Residual amount [1, 9]: 100.0%; Total impurities [1, 9]: 2.25%; Water content [1, 9]: 1.1%; pH of reconstituted solution in 5 ml of purified water [1, 9]: 6.37; Total impurities [1, 10]: 2.68%; Residual amount [1, 11]: 99.3%; Total impurities [1, 11]: 4.03%; pH of reconstituted solution in 5 ml of purified water [1, 11]: 6.07; Residual amount [1, 12]: 98.2%; Total impurities [1, 12]: 3.49%; pH of reconstituted solution in 5 ml of purified water [1, 12]: 6.11; Residual amount [1, 13]: 100.0%; Total impurities [1, 13]: 2.25%; Water content [1, 13]: 1.2%; pH of reconstituted solution in 5 ml of purified water [1, 13]: 6.26; Residual amount [1, 14]: 100.5%; Total impurities [1, 14]: 2.74%; pH of reconstituted solution in 5 ml of purified water [1, 14]: 6.00; Residual amount [1, 15]: 97.9%; Total impurities [1, 15]: 3.95%; pH of reconstituted solution in 5 ml of purified water [1, 15]: 5.99; Residual amount [1, 16]: 97.3%; pH of reconstituted solution in 5 ml of purified water [1, 16]: 6.00; Residual amount [1, 17]: 100.0%; Total impurities [1, 17]: 2.28%; Water content [1, 17]: 0.9%; pH of reconstituted solution in 5 ml of purified water [1, 17]: 6.13; Residual amount [1, 18]: 99.0%; Total impurities [1, 18]: 2.76%; pH of reconstituted solution in 5 ml of purified water [1, 18]: 6.04; Residual amount [1, 19]: 98.1%; Total impurities [1, 19]: 4.14%; pH of reconstituted solution in 5 ml of purified water [1, 19]: 5.95; Total impurities [1, 20]: 3.83%; pH of reconstituted solution in 5 ml of purified water [1, 20]: 5.96; Residual amount [1, 21]: 100.0%; Total impurities [1, 21]: 2.46%; Water content [1, 21]: 1.3%; pH of reconstituted solution in 5 ml of purified water [1, 21]: 6.03; Residual amount [1, 22]: 99.5%; Total impurities [1, 22]: 2.79%; Residual amount [1, 23]: 97.8%; Total impurities [1, 23]: 4.15%; pH of reconstituted solution in 5 ml of purified water [1, 23]: 5.92; Residual amount [1, 24]: 96.7%; Total impurities [1, 24]: 3.92%; pH of reconstituted solution in 5 ml of purified water [1, 24]: 5.88; Appearance [1, 25]: white mass; Clarity of reconstituted solutions [1, 25]: transparent; Color of reconstituted solutions [1, 25]: colorless; Time for reconstitutional dissolution [1, 25]: 15 s; Residual amount ([2]; all solution pH values 4.0 to 7.0, 0 hours): 100%; Water content [2, 26]: 0.2%; pH of reconstituted solution in 5 ml of purified water [2, 26]: 3.9; Residual amount [2, 27]: 94.4%; pH of reconstituted solution in 5 ml of purified water [2, 27]: 4.0; Water content [2, 28]: 0.2%; pH of reconstituted solution in 5 ml of purified water [2, 28]: 4.4; Residual amount [2, 29]: 95.9%; pH of reconstituted solution in 5 ml of purified water [2, 29]: 4.5; Water content [2, 30]: 0.3%; pH of reconstituted solution in 5 ml of purified water [2, 30]: 4.8; Residual amount [2, 31]: 97.4%; pH of reconstituted solution in 5 ml of purified water [2, 31]: 4.9; Water content [2, 32]: 0.3%; pH of reconstituted solution in 5 ml of purified water [2, 32]: 5.4; Residual amount [2, 33]: 98.5%; pH of reconstituted solution in 5 ml of purified water [2, 33]: 5.4; Water content [2, 34]: 0.3%; pH of reconstituted solution in 5 ml of purified water [2, 34]: 5.8; Residual amount [2, 35]: 97.7%; pH of reconstituted solution in 5 ml of purified water [2, 35]: 5.8; Water content [2, 36]: 0.4%; pH of reconstituted solution in 5 ml of purified water [2, 36]: 6.4; Residual amount [2, 37]: 96.9%; pH of reconstituted solution in 5 ml of purified water [2, 37]: 6.4; Water content [2, 38]: 0.3%; pH of reconstituted solution in 5 ml of purified water [2, 38]: 6.8; Residual amount [2, 39]: 95.8%; pH of reconstituted solution in 5 ml of purified water [2, 39]: 6.8; Stability of composition (conclusion from Table 5) ([2]; after lyophilizing the solution at pH 4.0 to 7.0 at least, preferably pH 4.5 to 7.0): stable; Appearance ([3]; 10 mg Compound (II) + 20 mg lactose): White mass; pH of reconstituted solution in 1 ml of water ([3]; 10 mg Compound (II) + 50 mg lactose): 6.26; Clarity of reconstituted solution in 1 ml of water ([3]; 10 mg Compound (II) + 100 mg lactose): Clear; Residual amount [4, 10]: 101.2%; pH of reconstituted solution in 5 ml of purified water [4, 10]: 6.14; Total impurities [4, 16]: 3.68%; Residual amount [4, 20]: 97.7%; pH of reconstituted solution in 5 ml of purified water [4, 22]: 5.85
